Values joined by “and” are separate entries in the source; they are usually repeats but may differ in a detail not shown here. Equal values may be shown once.
Tests used:
[1] = Arterial pressure effects in anesthetized rabbits; type: in vivo; conditions: rabbit
Protocol: Animal and Homodynamic Measurements:
The experiments were performed with male rabbits weighing 3 kg, from the CECAL (Centro de Criação de Animais de Laboratório) at Fundação Oswaldo Cruz. The animals were anesthetized with sodium pentobarbital (40 mg/kg) in the ear marginal vein, and anesthesia maintenance was obtained with supplemental intravenous (i.v.) doses of 5 mg/kg as necessary. The […] were tracheomized, inserted with a polyethylene canule, and immobilized with pancuronium bromide (1 mg/kg, i.v.), with supplemental doses of 0.2 mg/kg for each hour of experiment and artificially ventilated with a mechanical fan (Rodent ventilator 7025, Ugo Basile) with a volume of 10 ml/kg and frequency from 40 to 50 incursions/min. The right femoral vein was catheterized for drug administration.
The arterial pressure was monitored through abdominal aorta catheter via the right femoral artery and connected to a quartz transductor Hewlett Packard (1290 A), which was connected to an arterial pressure processor and recorder Hewlett Packard (system 7754 with amplifier 8805 B).
The systolic (SAP) and diastolic (DAP) arterial pressures were obtained directly from the records and the average arterial pressure (AAP) was calculated by DAP's Sum with a third of the differential pressure [[…]]. The cardiac frequency was determined by counting the pressure waves, visualized with the speed increase of the recorder paper.
The cardiac debit (DC) was monitored using an electromagnetic probe, connected to a Skalar flowmeter model MDL 1401. After left thoraxatomy, between the second and third ribs, was made an incision in the pericardium and the heart was exposed to enable the visualization and dissection of the ascending aorta for installation of the electromagnetic probe. The systemic vascular resistance (SVR) was calculated as a quotient of the average arterial pressure by the cardiac debit, multiplied by a conversion factor 80 (SVR=AAP/DC×80) and expressed in dyn/seg/cm-5.
At the conclusion of the anesthetic-surgical procedures, a 15-minute period was allowed for stabilization of the homodynamic parameters. Before any pharmacological manipulation the average arterial pressure, cardiac frequency and cardiac debit measurements were obtained. These values were considered basal homodynamic values.
The results were expressed as average±standard deviation (E.P.M.) The administration effects of LASSBio 772 with regard to the basal values were analyzed through variance analysis (ANOVA) for repeated measurements. When a significant statistical difference was found in the test ANOVA, the test Newman-Keuls was used to locate the differences. The paired t test was used to analyze the phenylephrine pressure effects before and after the treatment with LASSBio 772B. Differences with p<0.05 were considered significant. All the calculations were done on the computer, using the statistic software Instat-2.0.
Arterial Pressure Effects of LASSBio 772 Administration: […]

[2] = molecular target: T1, alpha 1D adrenoceptor (rat aorta) (Rattus norvegicus, UniProt P23944); experiment: Vasoconstriction assay in rat aorta induced by norepinephrine; type: cell-based
T1 construct: from tissue; host or cells: rat aorta segments with endothelium
T1 sequence (P23944 1-561): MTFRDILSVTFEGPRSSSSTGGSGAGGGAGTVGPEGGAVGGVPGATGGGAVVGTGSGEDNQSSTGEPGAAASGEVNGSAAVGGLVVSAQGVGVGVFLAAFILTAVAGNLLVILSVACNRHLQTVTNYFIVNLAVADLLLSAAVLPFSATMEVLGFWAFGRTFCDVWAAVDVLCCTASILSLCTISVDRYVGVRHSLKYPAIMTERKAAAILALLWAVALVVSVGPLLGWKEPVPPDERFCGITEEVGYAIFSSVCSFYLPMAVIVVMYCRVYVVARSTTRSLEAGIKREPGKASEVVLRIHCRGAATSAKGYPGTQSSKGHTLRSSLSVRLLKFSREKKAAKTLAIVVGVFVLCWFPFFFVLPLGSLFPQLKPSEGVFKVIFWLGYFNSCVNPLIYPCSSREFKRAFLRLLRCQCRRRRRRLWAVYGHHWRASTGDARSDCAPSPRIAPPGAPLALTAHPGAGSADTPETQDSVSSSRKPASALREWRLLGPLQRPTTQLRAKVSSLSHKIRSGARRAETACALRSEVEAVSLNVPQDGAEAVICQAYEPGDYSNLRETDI
Protocol: Vasoconstriction Assay in Mouse Aorta Induced By Norepinephrine
Aorta segments with endothelium (3 mm), withdrawn from young male rats (250-300 g), were placed in containers containing physiologic solution (NaCl 122 mM, KCl 5 mM, NaHCO3 15 mM, glucose 11.5 mM, MgCl2 1.2 mM, CaCl2 1.25 mM and KH2PO4 1.2 mM), kept at 37° C. under aeration with a mixture of 95% of O2 and 5% of CO2, and submitted to a pre-charge of 5 mN for 60 minutes. During this period, eventual tension adjustments were performed until the stabilization in 0.5 g, always with renewal with physiologic solution. Then, vasoconstriction was induced by 60 mM KCl solution, in each ring, to verify the viability of the organ on the day of experiment. The preparation was submitted to the contraction with norepinephrine (5×10^−5 M) and, then the rings were washed to reach the basal line (0% of vasoconstriction). The procedure was repeated until the obtainment of a constant curve. Later, a curve, using increasing concentrations of norepinephrine (3×10^−8-5×10^−5 M), was performed for each ring, as a positive control. The segments were washed to reach the basal line (0% of vasoconstriction) and incubated with the test compounds, individually, for 30 minutes. A second norepinephrine curve was performed and obtained data compared to the first control curve. […] The aorta rings were used once for each compound.
Determination of the LASSBio 772 Antagonist Potency (pKB) on the Vasoconstriction of Rabbit or Rat Thoracic Aorta.

H1 receptors = molecular target: T2, H1 receptors (Cavia porcellus, UniProt P31389); experiment: Cobaio (guinea pig) trachea contraction induced by histamine; type: cell-based; conditions: histamine 100 microM, compound 3 nM-30 microM
T2 construct: from tissue; host or cells: guinea pig trachea strips
T2 sequence (P31389 whole entry): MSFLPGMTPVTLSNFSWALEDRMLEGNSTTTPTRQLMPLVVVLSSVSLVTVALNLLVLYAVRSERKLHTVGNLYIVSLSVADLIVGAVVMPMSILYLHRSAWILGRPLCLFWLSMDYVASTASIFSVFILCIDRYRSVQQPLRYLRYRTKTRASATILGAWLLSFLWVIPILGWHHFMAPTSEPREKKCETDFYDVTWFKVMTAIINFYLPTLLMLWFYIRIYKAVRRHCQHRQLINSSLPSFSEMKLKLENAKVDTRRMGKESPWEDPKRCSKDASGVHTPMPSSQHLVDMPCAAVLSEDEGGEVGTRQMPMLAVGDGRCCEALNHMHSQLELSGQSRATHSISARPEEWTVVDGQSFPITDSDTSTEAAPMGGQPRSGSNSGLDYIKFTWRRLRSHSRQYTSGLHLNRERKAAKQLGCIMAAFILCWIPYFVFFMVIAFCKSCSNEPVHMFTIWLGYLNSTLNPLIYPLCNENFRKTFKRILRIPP
Text: Cobaios albinos from both sexes, weighing between 400 and 600 g were used in this experiment. The animals were sacrificed by cervical displacement and posterior bleed. Then, their tracheas were removed, kept in 5 microM indometacin added Krebs-Henseleit physiologic solution and oxygenated with carbogenic mixture (95% O2 and 5% CO2), proceeding the removal of the connective and adhered adipose tissue. From these tracheas were obtained segments with 4-6 rings, that are sectioned in the opposite side of the smooth musculature, originating strips used in the contractions assay (ARAKIDA et al., J. Pharmacol. Exper. Therap., 287: 633-639, 1998).
These strips were adapted in glass containers of 1.0 mL containing nutritious solution and continuous aeration with carbogenic mixture. The containers are maintained in a bath (Ugo Basile 4050) at the constant temperature of 37±0.50° C., mimicking thus physiologic terms in vitro. The trachea strips were connected to isometric force transducers (Ugo Basile 7011-4), submitted to a tension of 1 g and rested for 1 hour, changing the solution in 15 minute intervals, to obtain the balance to this tension.
After the period, the organ is treated with agonists that will induce contractions. […] The tissue viability was evaluated by contraction induction with histamine 100 microM or carbacol 10 microM. […]

## COc1ccccc1N1CCN(CCc2ccc3c(c2)OCO3)CC1 [LASSBio 772, 1-(2-1,3-Benzodioxol-5-yl-ethyl)-4-(2-methoxy-phenyl)-piperazine]
[1]; 100 μg/kg i.v.
  reduction of arterial pressure: ~10%
[1]; 100 μg/kg i.v., n=5
  average arterial pressure (AAP): 79±4 mmHg
  diastolic arterial pressure (DAP): 71±4 mmHg
  systolic arterial pressure (SAP): 94±7 mmHg
[1]; i.v.
  hypotension: without however causing significant clinically hypotension
[1]; i.v., doses 1-100 μg/kg, versus basal values
  dose from which a significant hypo-tensor response was induced: ≥ 3 µg/kg
[2]
  selectivity index for alpha 1D in comparison to alpha 1B subtype: ≥ 10000
[2]; pKB, rat aorta, α1D
  Kb: 0.0132 nM and 0.0138 nM
[2]; rat aorta
  affinity for alpha 1D subtype relative to BMY 7378: ≥ 430 times
H1 receptors
  IC50: 309 nM
